Experimental findings from patent US9770452B2, “Quinoxaline derivatives as GPR6 modulators” (Takeda Pharmaceutical Company Limited, priority 2012, dated 2017) are described below.

Where a name gives a salt, the structure may show the parent alone.

T1 sequence (P46095 whole entry): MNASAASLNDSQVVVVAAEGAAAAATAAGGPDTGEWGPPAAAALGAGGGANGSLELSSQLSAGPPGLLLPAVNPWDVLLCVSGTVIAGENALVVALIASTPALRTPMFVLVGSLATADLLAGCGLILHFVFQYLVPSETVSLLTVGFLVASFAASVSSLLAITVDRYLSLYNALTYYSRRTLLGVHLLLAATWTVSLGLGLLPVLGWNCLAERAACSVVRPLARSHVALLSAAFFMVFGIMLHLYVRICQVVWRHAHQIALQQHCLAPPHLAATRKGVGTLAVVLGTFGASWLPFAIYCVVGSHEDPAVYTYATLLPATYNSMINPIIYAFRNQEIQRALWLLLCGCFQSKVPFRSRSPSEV

One assay has as its target T1, GPR6 receptor (Homo sapiens, UniProt P46095).
T1 construct: expressed in transfected cells
As to the kind of experiment: Inhibition of cAMP Activity of GPR6 In Vitro Assay (CHO-K1 cells, HTRF cAMP). Format: cell-based. The settings on record: compounds of Compound Table 1; inhibition of constitutive cAMP activity of GPR6 expressed in CHO-K1 cells; approximate IC50; read-out: IC50. In a few lines:
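CHO-K1 cells with doxycycline-induced (1 μg/ml, 20 h) GPR6 treated with compounds 45 min at 37 °C in Ringer's buffer (pH 7.4) with 0.5% fatty acid free BSA. Constitutive cAMP measured by Lance HTRF Ultra cAMP; IC50 from four-parameter logistic fit.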
On the technique in general: In TR-FRET formats the signal depends on donor and acceptor labels being close together.
One may read the IC50 as the concentration at which inhibition is half-maximal. In the case of `CC(C)Nc1nc2ccccc2nc1N1CCN(Cc2cc(Cl)ccc2Cl)CC1` [Cpd 111, 3-(4-(2,5-dichlorobenzyl)piperazin-1-yl)-N-isopropylquinoxalin-2-amine, 2,2,2-trifluoroacetic acid salt], the half-maximal inhibitory concentration (IC50) came out at 3310 nM.

For the molecule “(4-bromo-3-fluorophenyl)(4-(3-(cyclopropylamino)-7-fluoroquinoxalin-2-yl)piperazin-1-yl)methanone [Cpd 247]”, the half-inhibitory concentration (IC50) was found to be 1490 nM. Turning to `CC(C)CCNc1nc2ccccc2nc1N1CCN(Cc2cc(Cl)ccc2Cl)CC1` [Cpd 115, 3-(4-(2,5-dichlorobenzyl)piperazin-1-yl)-N-isopentylquinoxalin-2-amine, 2,2,2-trifluoroacetic acid salt], the IC50 turned out to be 3980 nM.

For “7-chloro-N-cyclopropyl-3-(4-((2,4-difluorophenyl)fluoromethyl)piperidin-1-yl)pyrido[3,4-b]pyrazin-2-amine, 2,2,2-trifluoroacetic acid salt [Cpd 489]”, the 50% inhibitory concentration (IC50) was determined as 7 nM.

Consider “3-(4-(2,5-dichlorobenzyl)piperazin-1-yl)-N-(pyridin-4-yl)quinoxalin-2-amine, 2,2,2-trifluoroacetic acid salt [Cpd 214]”, for which the IC50 is 1470 nM. With “(3-bromo-4-methylphenyl)(4-(3-(cyclopropylamino)quinoxalin-2-yl)piperazin-1-yl)methanone, 2,2,2-trifluoroacetic acid salt [Cpd 154]”, the IC50 came out at 720 nM. On the same count and under the same terms, the result for “3-(4-(2,4-difluorobenzyl)piperidin-1-yl)-2-(isopropylamino)quinoxaline-6-carbonitrile [Cpd 461]” reads 20 nM; that for “N-cyclopropyl-3-(4-(pyridin-4-yloxy)piperidin-1-yl)pyrido[3,4-b]pyridin-2-amine [Cpd 554]”, 190 nM. Regarding “(2-fluoro-4-methoxyphenyl)(1-(3-(isopropylamino)pyrazino[2,3-d]pyridazin-2-yl)piperidin-4-yl)methanone, 2,2,2-trifluoroacetic acid salt [Cpd 641]”, the 50% inhibitory concentration (IC50) was 14 nM. Turning to “2-((2,2-difluoroethyl)amino)-3-(4-(2,4-difluorophenoxy)piperidin-1-yl)quinoxaline-6-carbonitrile [Cpd 513]”, the IC50 is 71 nM. As to “N-cyclopropyl-3-(4-(2,4-difluorobenzyl)piperidin-1-yl)-5-methylpyrido[3,4-b]pyrazin-2-amine, 2,2,2-trifluoroacetic acid salt [Cpd 493]”, the IC50 is 9 nM. Regarding “3-(4-(2,4-difluorophenoxy)piperidin-1-yl)-N-(2-methoxyethyl)pyrido[3,4-b]pyrazin-2-amine, 2,2,2-trifluoroacetic acid salt [Cpd 525]”, the IC50 was 29 nM. The same measure, in the same setting: the result for “N-cyclopropyl-3-(4-((5-methylisoxazol-3-yl)methyl)piperazin-1-yl)quinoxalin-2-amine, 2,2,2-trifluoroacetic acid salt [Cpd 158]” reads 440 nM; that for “2-(cyclopropylamino)-3-(4-(2,4-difluorobenzyl)piperazin-1-yl)pyrido[3,4-b]pyrazine-5-carbonitrile, 2,2,2-trifluoroacetic acid salt [Cpd 612]”, 114 nM; that for “3-(4-(2,5-difluorobenzoyl)piperidin-1-yl)-2-(isopropylamino)-N,N-dimethylpyrido[3,4-b]pyrazine-7-carboxamide, 2,2,2-trifluoroacetic acid salt [Cpd 635]”, 40 nM. With “2-(cyclopropylamino)-3-(4-(m-tolylsulfonyl)piperazin-1-yl)quinoxaline-6-carbonitrile [Cpd 239]”, the IC50 came out at 4740 nM.

For the molecule “(4-chlorophenyl)(4-(2-(cyclopropylamino)pyrido[3,4-b]pyrazin-3-yl)piperazin-1-yl)methanone [Cpd 263]”, the IC50 worked out at 120 nM. As to “3-(4-(4-chloro-2-fluorophenoxy)piperidin-1-yl)-2-(isopropylamino)-N,N-dimethylpyrido[3,4-b]pyrazine-7-carboxamide, 2,2,2-trifluoroacetic acid salt [Cpd 630]”, the half-inhibitory concentration (IC50) amounted to 7 nM. Still for that read-out and setting: as for “2-(cyclopropylamino)-3-(4-(2-fluoro-4-methoxyphenoxy)piperidin-1-yl)pyrido[3,4-b]pyrazine-5-carbonitrile, 2,2,2-trifluoroacetic acid salt [Cpd 605]”, the figure is 36 nM; as for “8-chloro-N-cyclopropyl-3-(4-((2,5-difluorophenyl)fluoromethyl)piperidin-1-yl)pyrido[3,4-b]pyrazin-2-amine, 2,2,2-trifluoroacetic acid salt [Cpd 486]”, 98 nM; as for “3-(4-(2,4-difluorobenzyl)piperazin-1-yl)-N-isopropylpyrazino[2,3-d]pyridazin-2-amine 2,2,2-trifluoroacetate [Cpd 650]”, 1000 nM. For the molecule “2-(cyclopropylamino)-3-(4-(2,4-difluorophenoxy)piperidin-1-yl)-N,N-dimethylpyrido[3,4-b]pyrazine-7-carboxamide [Cpd 597]”, the concentration for half-maximal inhibition (IC50) stood at 89 nM.

With `CC(C)Nc1nc2cnncc2nc1N1CCC(Oc2ccc(F)cc2F)CC1` [Cpd 633, 3-(4-(2,4-difluorophenoxy)piperidin-1-yl)-N-isopropylpyrazino[2,3-d]pyridazin-2-amine, 2,2,2-trifluoroacetic acid salt], the half-inhibitory concentration (IC50) came out at 4 nM. For “3-fluoro-4-((1-(3-(isopropylamino)pyrazino[2,3-d]pyridazin-2-yl)piperidin-4-yl)oxy)benzonitrile, 2,2,2-trifluoroacetic acid salt [Cpd 639]”, the half-maximal inhibitory concentration (IC50) came to 30 nM. On the same count and under the same terms, the result for `C[C@@H]1C[C@H]1Nc1nc2cnncc2nc1N1CCC([C@@H](F)c2ccc(F)cc2F)CC1` [Cpd 645, 3-(4-((R)-(2,4-difluorophenyl)fluoromethyl)piperidin-1-yl)-N-((1R,2R)-2-methylcyclopropyl)pyrazino[2,3-d]pyridazin-2-amine, 2,2,2-trifluoroacetic acid salt] reads 145 nM; that for `Fc1ccc(F)c(CN2CCN(c3nc4ccccc4nc3NC3CC3)CC2)c1` [Cpd 81, N-cyclopropyl-3-(4-(2,5-difluorobenzyl)piperazin-1-yl)quinoxalin-2-amine, 2,2,2-trifluoroacetic acid salt], 4580 nM. With “N-cyclopropyl-3-(4-(4-fluoro-2-methylbenzyl)piperazin-1-yl)quinoxalin-2-amine, 2,2,2-trifluoroacetic acid salt [Cpd 157]”, the IC50 is 105000 nM. Take “N-cyclopropyl-3-(4-((4-fluorophenyl)sulfonyl)piperazin-1-yl)pyrido[3,4-b]pyrazin-2-amine, 2,2,2-trifluoroacetic acid salt [Cpd 288]”: the half-maximal inhibitory concentration (IC50) stood at 2650 nM. “4-((1-(2-(cyclopropylamino)pyrido[3,4-b]pyrazin-3-yl)piperidin-4-yl)oxy)-N,N-dimethylbenzamide, 2,2,2-trifluoroacetic acid salt [Cpd 588]”: the IC50 is 2740 nM. With “3-(4-(4-chloro-2-fluorophenoxy)piperidin-1-yl)-N-isopropylpyrazino[2,3-d]pyridazin-2-amine, 2,2,2-trifluoroacetic acid salt [Cpd 643]”, the IC50 came to 15 nM.

Consider “N-cyclopropyl-3-(4-(2,4-difluorophenoxy)piperidin-1-yl)pyrazino[2,3-d]pyridazin-2-amine, 2,2,2-trifluoroacetic acid salt [Cpd 619]”, for which the IC50 came out at 14 nM.

Turning to “2-(cyclopropylamino)-3-(4-((2,5-dichlorophenyl)sulfonyl)piperazin-1-yl)quinoxaline-6-carbonitrile [Cpd 226]”, the IC50 came to 570 nM. In the case of “(2-bromopyridin-3-yl)(1-(2-(cyclopropylamino)pyrido[3,4-b]pyrazin-3-yl)piperidin-4-yl)methanone, 2,2,2-trifluoroacetic acid salt [Cpd 586]”, the 50% inhibitory concentration (IC50) is 2290 nM.

On to `Clc1cccc(CN2CCN(c3nc4ccccc4nc3Nc3ncccn3)CC2)c1` [Cpd 126, 3-(4-(3-chlorobenzyl)piperazin-1-yl)-N-(pyrimidin-2-yl)quinoxalin-2-amine, 2,2,2-trifluoroacetic acid salt], for which the IC50 was determined as 47000 nM. On the same count and under the same terms, the result for `Clc1cccc(CN2CCN(c3nc4ccccc4nc3Nc3ccc(Br)cc3)CC2)c1` [Cpd 21, N-(4-bromophenyl)-3-(4-(3-chlorobenzyl)piperazin-1-yl)quinoxalin-2-amine, 2,2,2-trifluoroacetic acid salt] reads 3030 nM; that for “(4-chloro-2-fluorophenyl)(4-(2-((2,2-difluoroethyl)amino)pyrido[3,4-b]pyrazin-3-yl)piperazin-1-yl)methanone, 2,2,2-trifluoroacetic acid salt [Cpd 369]”, 400 nM. With “(R)-2-(cyclopropylamino)-3-(4-((2,4-difluorophenyl)fluoromethyl)piperidin-1-yl)-N,N-dimethylpyrido[3,4-b]pyrazine-7-carboxamide, 2,2,2-trifluoroacetic acid salt [Cpd 578]”, the concentration for half-maximal inhibition (IC50) was 7210 nM. Same read-out and setting: the result for “(S)-2-(cyclopropylamino)-3-(4-((2,4-difluorophenyl)fluoromethyl)piperidin-1-yl)-N,N-dimethylpyrido[3,4-b]pyrazine-7-carboxamide, 2,2,2-trifluoroacetic acid salt [Cpd 576]” reads 2880 nM; that for `N#Cc1cccc(CN2CCN(c3nc4ccccc4nc3NC3CC3)CC2)c1` [Cpd 95, 3-((4-(3-(cyclopropylamino)quinoxalin-2-yl)piperazin-1-yl)methyl)benzonitrile, 2,2,2-trifluoroacetic acid salt], 22200 nM.

Staying with this assay, now noted: compounds of Compound Table 2; inhibition of constitutive cAMP activity of GPR6 expressed in CHO-K1 cells; approximate IC50; read-out: IC50.
As to `CC(C)C1CN(c2nc3ccccc3nc2NC2CC2)CCN1Cc1cc(Cl)ccc1Cl` (stereo not shown) [Compound Table 2: Cpd 9, N-cyclopropyl-3-(4-(2,5-dichlorobenzyl)-3-isopropylpiperazin-1-yl)quinoxalin-2-amine], the IC50 was determined as 17700 nM.
